Laboratory results reported in patent US20230226079A1, “METHODS AND COMPOSITIONS FOR TREATMENT OF SOLID TUMORS” (Saint Louis University, priority 2022, published 2023).

Assays:
[1] = tested on: normal oral keratinocytes (NOK); assay: Cytotoxicity assay in normal oral keratinocytes; assay type: cell-based, human; settings: 48 h
Description: Normal oral keratinocytes (NOK) (kindly gifted by Dr. Karl Mugner, Tuffs University, Boston, MA, USA) were maintained in Keratinocyte SFM medium supplemented with EGF and bovine pituitary extract (GIBCO, Life Technologies, Berkeley, MO, USA) and 1% penicillin/ streptomycin. HNC cell line Ca127 was purchased from the ATCC. JHU029 (JHU-29) and JHU022 (JHU-22) cell lines were procured from the Johns Hopkins University (Baltimore, MD, USA). The Ca127 and JHU022 cells were maintained in Dulbecco's Modified Eagle Medium (DMEM), and JHU029 cells were in RPMI1640 (Sigma, St. Louis, Mo., USA) media supplemented with 10% FBS and 1% penicillin/ streptomycin (Sigma-Aldrich, St. Louis, Mo., USA) in a humidified CO2 incubator. The cell lines are routinely tested in the Inventors' laboratory to rule out mycoplasma contamination using a commercial Mycoplasma Detection kit (MycoAlert™, Lonza, Morrisville, N.C., USA). Ca127 cells are tongue origin and JHU022 and JHU029 cells are from larynx origin.
Ca127, JHU029, JHU022 and NOK were seeded in 96 well-plate (5000 cells/well) and cells were treated with different concentration of M-I for 48 h. There were untreated control and DMSO treated vehicle control group for comparison. Cytotoxicity assay was performed using Cell Counting Kit-8 (Dojindo Molecular Technology, Rockville, Md., USA) according to manufacturer instruction.

[2] = tested on: c-Myc, survivin and cyclin D1; assay: Western blot for STAT3 downstream molecules in HNC cells; assay type: cell-based; settings: Ca127 and JHU029 cells
Method: The powder was dissolved in DMSO and added to the cells at different concentrations. Based on cytotoxicity data, Ca127 and JHU029 cells were treated with 10 ug/mL and JHU022 cells were treated with 20 ug/mL dose of M-I and incubated for 48 hr for further experiments. All the experiments were done at least in triplicate.

[3] = Pharmacokinetic study, single dose; assay type: in vivo, mice; settings: for AUC (% Extrap): C57BI/6 male mice
Method: The pharmacokinetic (PK) study of M-I was performed in male C57B1/6 mice. A single dose of M-I (formulated at 2 mg/mL dissolved in 5% DMSO/95% of a 30% w:v Captisol solution) was administered either by intraperitoneal injection (IP group, n=3) or oral gavage (PO group, n=3). After dosing, 20 uL blood samples were collected into heparin pre-coated tubes at 5 min, 15 min, 30 min, 1 h, 2 h, 4 h, 6 h, 8 h and 24 h. Samples were centrifuged, and the plasma collected. M-I concentration was determined using liquid chromatography-mass spectrometry/mass spectrometry (LC-MS/MS) as described earlier (Fuerst et al. (2018) Chem.; 26, 4984-4995).

Toxicity study, 5 days = assay type: in vivo; settings: BME 30% in drinking water
Method: For toxicity study, C57B1/6 male mice were received either 30% BME through drinking water or 20 mg/kg of M-I twice a day or 30 mg/kg of M-I once a day by IP injection for 5 days. There were three mice in each group, including untreated control. Blood was collected on day 6, and serum was prepared. Serum parameters related to hepatotoxicity (total bilirubin, alanine transaminase, aspartate transaminase, and alkaline phosphatase) and nephrotoxicity (urea and creatinine) were performed.

JHU029 xenograft = assay: Tumorigenicity assay, JHU029 xenograft model; assay type: in vivo, nude mice
Method: (§1) JHU029 or Ca127 cells (1.5 10^6) containing 40% Matrigel were injected subcutaneously into the flank of BALB/c athymic nude mice (7-8 weeks old). When the palpable tumor was developed (>60 mm3), mice were divided into three groups randomly, 5 mice in each group. The control group was without any treatment. The BME group received 30% (v/v) BME through drinking water. M-I group received 30 mg/kg dose of M-I once in day, every day. Body weight was monitored, and tumor size was measured using a slide caliper and volume was calculated using the formula 1/2 L X W2. After animal sacrifice tumors were dissected out and snap frozen in liquid nitrogen for further analysis. All the animal experiments were carried out in accordance NIH guidelines, following a protocol approved (1017) by the Institutional Animal Care and Use Committee (IACUC) of Saint Louis University.

c-Met and c-Myc = assay: Western blot of Ca127 tumor lysates; assay type: in vivo, nude mice; settings: Ca127 xenograft tumors
Method: Lysates from control, BME or M-I treated cells and tumors were prepared using 2 SDS sample buffer and subjected to western blot analysis using specific antibodies to c-Met (1:500, Cell Signaling Technology, CST, Denvers, Mass., USA,), phospho-STAT3 (pSTAT3-Tyr-705) (1:1000, CST), total STAT3 (1:1000, CST), c-Myc (1:1000, CST), surviving (1:500, Santa Cruz Biotechnology, SBT, Dallas, Tex., USA) and cyclin D1 (1: 500, SBT). HRP conjugated anti-mouse or anti-rabbit secondary antibodies were purchased from Bio-Rad (Hercules, Calif., USA). The blot was reprobed with HRP conjugated -actin antibody (1:5000; SBT) to compare protein load in each lane. Densitometry analysis was done using Image J software (NIH, Bethesda, Md., USA).
as §1, with “All the animal experiments were carried out in accordance NIH guidelines, following a protocol approved (1017) by the Institutional Animal Care and Use Committee (IACUC) of Saint Louis University.” left out

MDA-MB-231 cells = assay type: cell-based
Description: FIG. 10A illustrates Treated or untreated cells were stained with Calcein AM (green color indicates live cells) and ethidium homodimer-1 (red color inndicates dead cells-shown by white arrows) to quantitate the live and dead cells by fluorescence microscopy with corresponding bright field images. Magnification 10X. Arrows indicate dead cells. FIG. 10B illustrates Quantitation of relative dead cells, calculated from five random fields. Small bar indicates standard error ***p<0.001).
FIG. 11 illustrates M-I activates NK cells for killing activity. MDA-MB-231 cells were co-cultured with NK cells activated by IL2, BME or M-I. After 24 hr cell lysates were prepared and subjected to Western blot analysis using specific antibodies. Left panel: Representative western blot images for cleaved PARP, expression of cleaved Caspase 9 and 3 are shown. Membrane was reprobed with antibody for Actin as an internal control.
NK cells are implicated in drug induced resistant cancer cells to drive tumor growth (Smalley et al., 2020). […] Bitter melon extract was used as a control. Control or M-I treated NK3.3 cells were also cocultured with MDA-MB-231 cells at 1:5 (Target:Effector) ratio for 24 h and stained for viable/dead cells. […] The apoptotic markers were further examined by Western blot analysis.

CC(C)=CC(O)CC(C)[C@H]1CC[C@@]2(C)[C@@H]3[C@@H](O)C=C4[C@@H](CC[C@H](O)C4(C)C)[C@]3(C=O)CC[C@]12C (stereo partly drawn) [M-I, (3S, 7S, 8S, 9R, 10R, 13R, 14S, 17R) 3,7-dihydroxy-17-(4-hydroxy-6-methylhept-5-en-2-yl)-4,4,13,14-tetramethyl-2,3,7,8,10,11, 12,15, 16,17-decahydro-1H-cyclopenta[a]phenanthrene-9-carbaldehyde]
effect on human normal oral keratinocytes (NOK) [1]: minimum effect | STAT3 downstream molecules c-Myc, survivin and cyclin D1 [2]: significant inhibition | adverse events after single dose, IP group ([3]; 20 mg/kg IP): No adverse events | adverse events after single dose, oral group ([3]; 20 mg/kg PO, starting four hours post-dose, not resolved by 8 h, normal after twenty-four hours): loose stool | AUC (% Extrap) ([3]; 20 mg/Kg IP): 0.33 ± 0.08% | AUC (% Extrap) ([3]; 20 mg/Kg PO): 6.84 ± 1.5% | body weight in toxicity study (Toxicity study, 5 days; M-I 20 mg/kg twice a day or 30 mg/kg once a day IP, five days): stable | serum total bilirubin, alanine transaminase, aspartate transaminase, alkaline phosphatase, creatinine, urea and glucose versus untreated control (Toxicity study, 5 days; blood on day six, M-I IP five days): comparable | reduction of tumor growth, M-I compared with BME (JHU029 xenograft; M-I 30 mg/kg IP once a day versus BME 30% in drinking water): better effect | tumor volume (JHU029 xenograft; M-I 30 mg/kg IP once a day, BME 30% in drinking water, sacrifice day 32): significantly reduced tumor volume | sudden drop in body weight (JHU029 xenograft; three out of five mice, Day 20, M-I 30 mg/kg IP once a day, weight gained back): −10% | c-Met and c-Myc expression in tumors versus control (c-Met and c-Myc): significant reduction | cytotoxicity of treated NK3.3 cells against MDA-MB-231 cells (MDA-MB-231 cells): enhanced cytotoxicity | caspase 9/3 and PARP cleavage in breast cancer cells (MDA-MB-231 cells; M-I treated NK cells co-cultured with MDA-MB-231 cells, 24 hr, Western blot): activate caspase 9/3 and PARP cleavage
